Data reported in patent US8124364B2, “Biotin derivatives” (Glycorex Transplantation AB, priority 2000, dated 2012).

Key:
Mitra Avidin-Agarose = target: T1, Mitra Avidin-Agarose (Gallus gallus, UniProt P02701); experiment: Adsorption of biotin-trimer to avidin-agarose column (conditioning), concentration in recirculated fluid by ELISA; assay type: binding; conditions: 2 mL Mitra Avidin-Agarose; 5 mL of 1 mg/mL biotin-trimer in PBS recirculated at 1 mL/min for 20 minutes; end of recirculation
T1 construct: Mitra
Description: Two mL of Mitra Avidin-Agarose was packed into a column housing and was washed with >10 mL of PBS at a flow rate of 1 mL/min (1.6 cm/min). Five mL of a 1 mg/mL solution of biotin-trimer in PBS was recirculated through the avidin-column at 1 mL/min for 20 minutes. At end of the recirculation, a sample (0.5 mL) was drawn from the recirculated solution and analysed by an ELISA technique developed by Mitra Medical Technology AB. The biotin-avidin-agarose-column was washed with phosphate buffer at 1 mL/min for 20 minutes. By determining the concentration of biotin-trimer in the recirculated fluid, the amount of adsorbed biotin-trimer was estimated to about 1.9 mg i.e. 0.95 mg/mL of gel at the end of recirculation.
Biotin-trimer was adsorbed to 2 mL of Mitra Avidin-Agarose. […] If one biotin-trimer is bound per available binding site this would correspond to […] biotin-trimer/mL. As about 0.95 mg biotin-trimer was bound per mL avidin-agarose it can be assumed that the adsorbent was saturated with biotin-trimer.

avidin = avidin (Gallus gallus, UniProt P02701); experiment: Assessment of avidin adsorption on a column conditioned with biotin trimer, avidin by ELISA; assay type: binding
Description: An avidin-agarose column that was conditioned with a biotin trimer (i.e. FIG. 4, compound #2) was primed with phosphate buffer. Following this, 20 mL avidin-solution with 1 mg avidin/mL in PBS was recirculated through a biotin-avidin-agarose-column at 1.0 mL/min (1.6 cm/min). Three volumes of the avidin solution (3×20 mL) were processed and aliquots were drawn from the reservoir before start of the recirculation, then after 2 main and in 5 min intervals. The aliquots were analyzed for the quantity of avidin in them using an ELISA technique developed by Mitra Medical Technology AB. The dotted line represented the theoretically expected if no saturation effect has occurred. The column is saturated after about 40 min (2 vol.) when about 16 mg (80%) of, avidin has been bound. Signs of saturation was seen after about 20 min (1.0 vol.) when the experimental curve begin to deviate from the theoretical curve which occurred when about 10 mg of Avidin had been bound to the column.
After a 40 min recirculation, about 16 mg of avidin was bound, i.e. 8 mg/mL biotin-avidin-agarose. This corresponds to a 1:1 molar ration between the avidin coupled to agarose and the avidin adsorbed to the biotin-trimer. Initial saturation effects were seen after about one recirculated volume. After 2 volumes processed no further avidin was bound.

Sequence of avidin (P02701 25-152): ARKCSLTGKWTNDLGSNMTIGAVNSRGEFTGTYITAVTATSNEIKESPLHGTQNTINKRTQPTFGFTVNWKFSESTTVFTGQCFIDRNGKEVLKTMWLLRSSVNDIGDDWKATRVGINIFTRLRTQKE
T1 sequence (P02701 25-152): as above

O=C(CCCCC1OCC2NC(=O)NC21)NCCOCCOCCNC(=O)c1cc(C(=O)NCCOCCOCCNC(=O)CCCCC2OCC3NC(=O)NC32)cc(C(=O)NCCOCCOCCNC(=O)CCCCC2OCC3NC(=O)NC32)c1 (stereo not drawn) [biotin-trimer]
amount of adsorbed biotin-trimer (Mitra Avidin-Agarose): about 1.9 mg | time until signs of saturation (avidin; 1.0 vol.): about 20 min | avidin bound at saturation of the column (avidin; 20 mL of 1 mg avidin/mL in PBS recirculated at 1.0 mL/min, after about 40 min (2 vol.)): about 16 mg | avidin bound when signs of saturation were seen (avidin; after about 20 min (1.0 vol.), experimental curve begins to deviate from theoretical curve): about 10 mg | share of avidin bound at saturation (avidin; after about 40 min (2 vol.)): ~80% | time until the column is saturated (avidin; recirculation at 1.0 mL/min, 2 vol.): about 40 min
